# Results published in PMC3552057 (Biochemistry, 2013).
# Target: T1, HpxO (Klebsiella pneumoniae, UniProt A6T923)
# T1 sequence (A6T923 1-384): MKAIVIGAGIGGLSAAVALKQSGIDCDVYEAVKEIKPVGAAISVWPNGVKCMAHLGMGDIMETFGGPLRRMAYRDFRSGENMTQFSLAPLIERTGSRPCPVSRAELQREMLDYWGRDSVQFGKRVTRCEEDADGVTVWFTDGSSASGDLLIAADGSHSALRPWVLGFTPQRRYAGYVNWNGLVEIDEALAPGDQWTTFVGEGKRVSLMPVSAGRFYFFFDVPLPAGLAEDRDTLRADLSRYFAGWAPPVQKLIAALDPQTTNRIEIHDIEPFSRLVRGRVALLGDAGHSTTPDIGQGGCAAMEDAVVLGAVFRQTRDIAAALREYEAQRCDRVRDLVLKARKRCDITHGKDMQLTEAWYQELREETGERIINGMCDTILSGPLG
# Experiment: X-ray crystal structure, […] Å
# Assay type: binding
# Conditions: SeMet HpxO without uric acid; FAD in the in conformation
smiles,measurement,value
Cc1cc2nc3c(=O)[nH]c(=O)nc-3n(C[C@H](O)[C@H](O)[C@H](O)COP(=O)(O)OP(=O)(O)OC[C@H]3O[C@@H](n4cnc5c(N)ncnc54)[C@H](O)[C@@H]3O)c2cc1C [FAD],"X-ray crystal structure, 2.2 Å",One FAD molecule binds to the HpxO monomer in an extended conformation
